Test results: PMC10856454, “Discovery of Novel Antitumor Small-Molecule Agent with Dual Action of CDK2/p-RB and MDM2/p53” (Molecules, 2024)

Columns and labels:
[1] = Liver microsomal stability, mouse; type: in vitro ADME; conditions: Mice liver microsomes
Protocol: Compounds were incubated with mouse, rat, and human liver microsomal samples and NADPH at 37 °C for 5, 10, 20, 30, or 60 min. The reaction was terminated with a cold acetonitrile solution containing tolbutamide. Compound retention was determined by LC-MS/MS. The retention times, chromatographic acquisition, and chromatographic integration of compounds and positive control substances were analyzed using Analyst (AB Sciex, Framingham, MA, USA).

HCT116 cells = assay: Colony formation, HCT116; type: cell-based; conditions: 14 days
Protocol: Cells were inoculated in six-well plates at 1000 cells per well, and III-13 was added in a dose-dependent manner after 24 h. Cells were stained with Crystal Violet Staining Solution (Beyotime, Shanghai, China) at 14 days after incubation, and the cell colonies were counted using Image J.

[2] = test system: p-Rb, MDM2, p53 in HCT116 transplanted tumors; assay: Western blot of transplanted tumor tissues of nude mice; type: in vivo, Balb/c nude mice; conditions: Western blot of tumor tissue
Protocol: (§1) Total protein from HCT116, OVCAR3 cells and tissues was collected and homogenized in RIPA buffer. The total cellular protein extract was electrophoresed on 12% SDS-polyacrylamide gels and then transferred to a PVDF membrane (Thermo Fisher Scientific, Waltham, MA, USA). Primary antibodies were incubated overnight at 4 °C and secondary antibodies were incubated at room temperature for 1.5 h. Imaging was performed using Image Quant LAS4000 (GE, Boston, MA, USA).
(§2) HCT116 cells (1 × 10^6) were implanted into the back of adult male Balb/c nude mice by subcutaneous injection. […] The solvent or drug containing solution was administered daily to the vehicle and dosing groups by intraperitoneal injection (0.2 mL/20 g). Tumor growth was measured every three days during treatment. At the end of the treatment, the mice were killed, and the tumors were removed and weighed.

[3] = test system: HCT116 transplanted tumor; assay: Tumor xenograft experiment, nude mouse model of HCT116 transplanted tumor; type: in vivo, Balb/c nude mice
Protocol: as §2

[4] = test system: p-Rb, p-CDK2 in HCT116 cells; assay: Western blot of CDK2 pathway proteins in HCT116 cells; type: cell-based
Protocol: as §1

[5] = test system: MDM2 mRNA in OVCAR3 cells; assay: q-PCR of MDM2 mRNA after III-13 treatment; type: cell-based, human; conditions: q-PCR after 12 h of treatment
Text: RNA was reverse transcribed with the HiScript Q RT SuperMix for qPCR (Vazyme, Nanjing, China), and quantitative real-time PCR (qPCR) was applied using SYBR Green qPCR Mix (SparkJade, Jinan, China) on the ABI Prism 7500 Fast Real-Time PCR System (Applied Biosystems, Carlsbad, CA, USA) following the manufacturer’s protocols. The comparative CT method (ΔΔCt) was used to calculate gene expression differences, with GAPDH as the reference gene. The following primers were used (human): • ZNF311 (sense, 5′-3′): […] • ZNF311 (antisense, 5′-3′): […] • TBX15 (sense, 5′-3′): […] • TBX15 ([…], 5′-3′): […] • ZNF784 (sense, 5′-3′): […] • ZNF784 (antisense, 5′-3′): […] • SIX3 (sense, 5′-3′): […] • SIX3 (antisense, 5′-3′): […] • KLLN (sense, 5′-3′): […] • KLLN (antisense, 5′-3′): […] • P2RY1 (sense, 5′-3′): […] • P2RY1 (antisense, 5′-3′): […] • MSH4 (sense, 5′-3′): […] • MSH4 (antisense, 5′-3′): […] • STAR (sense, 5′-3′): […] • STAR (antisense, 5′-3′): […] • SUMO4 (sense, 5′-3′): […] • SUMO4 (antisense, 5′-3′): […] • ZC3H12D (sense, 5′-3′): […] • ZC3H12D (antisense, 5′-3′): […] • CCNE1 (sense, 5′-3′): […] • CCNE1 (antisense, 5′-3′): […] • MDM2 (sense, 5′-3′): […] • MDM2 (antisense, 5′-3′): […] • GAPDH (sense, 5′-3′): […] • GAPDH (antisense, 5′-3′): […]

CDK2 = target: T1, CDK2 (Homo sapiens, UniProt P24941); assay: Kinase antagonist activity assay (TR-FRET), CDK2; type: biochemical
T1 construct: purchased Thermo Fisher Scientific
Protocol: The compounds were solubilized with DMSO (Solarbio Life Sciences, Beijing, China), and 11 concentrations were serially diluted at 3-fold; 100 nL of compound was added to 384-well plates, 5 μL of 2 × enzyme mixture (Thermo Fisher Scientific, Waltham, MA, USA) was added, and 5 μL of buffer was added instead of the complete inhibition control wells. Then, 1000 rpm centrifugation was performed for 30 s followed by a 15 min incubation at 23 °C. Next, 5 μL of 2 × MLight-MBP peptide (PerkinElmer, Waltham, MA, USA) was added to each well, with 1000 rpm centrifugation for 30 s and incubation at 23 °C for 90 min. At the end of the incubation, the reaction was terminated with buffer containing 15 mM EDTA and 2 nM Eu-anti-P-MBP antibody (PerkinElmer, Waltham, MA, USA), centrifuged at 1000 rpm for 1 min, and incubated at 23 °C for 60 min; the plates were read on a Perkin Elmer Envision ([…]).

[6] = test system: p-Rb, p-CDK2, MDM2, p53 in OVCAR3 cells; assay: Western blot of CDK2 pathway, MDM2 and p53 proteins in OVCAR3 cells; type: cell-based
Protocol: as §1

TOV-21G cells = assay: Cell proliferation assay (Celltiter-Glo), TOV-21G; type: cell-based; conditions: Homo sapiens, TOV21G, 72 h; TOV-21G (normal expression of CCNE1), three days
Protocol: Celltiter-Glo Luminescent Cell Viability Assay (Promega, Madison, WI, USA) was used to detect cell viability according to the manufacturer’s instructions. This assay is a homogeneous method of determining the number of viable cells in a culture based on quantitation of the ATP present, an indicator of metabolically active cells. Cells were digested and paved in white-bottomed 96-well plates with 1000 cells/100 μL cell suspension solution; then, different concentrations of compounds were added the next day. TOV-21G and HCT116 were placed in the incubator for three days and OVCAR3 for five days. Then, 100 μL Celltiter-Glo solution was added and mixed for 5 min; the luminous intensity of each well was detected with a spectrophotometer (BioTek, Winooski, VT, USA). The experiment was repeated three times to calculate the cell survival rate.

[7] = 50 mg/kg, intraperitoneal daily, 14 days

For `CC1(C)CCN1C(=O)O[C@@H]1CC[C@H](c2cc(NC(=O)Cc3ccc(N4CCCC4=O)cc3)n[nH]2)C1` [III-13], the “Remaining (T = 60 min)” value ([1]; 60 min) was 1.29%, the CLint scaled ([1]; mouse) was 50.4 L/h/kg and the half-life ([1]; mouse, NADPH, 37 °C) was 6.53 min. The number of colonies (HCT116 cells) was “significant reduction”, the “level of MDM2 in transplanted tumors” value [2] was “significantly down-regulated” and the “level of p53 protein in transplanted tumors” value [2] was “up-regulated”. For the same compound, the “level of p-Rb in the transplanted tumors” value [2] was “significantly reduced”, the “tumor volume reduced by” value [3, 7] was about 69.81% and the “tumor weight reduced by” value [3, 7] was about 60.16%. The “weight loss in mice” value ([3]; 14 days of treatment) was “did not cause significant weight loss”, the tumor volume ([3]; both 25 and 50 mg/kg, intraperitoneal daily, 14 days) was “significantly reduced” and the “expression of p-Rb” value [4] was “significantly reduced”. The p-CDK2 expression [4] was “no significant effect”, the “MDM2 mRNA expression” value [5] was “significantly inhibited” and the IC50 (CDK2) was 0.0026 µM. The IC90 (CDK2) was 0.0262 µM, the MDM2 protein expression [6] was “inhibited” and the p53 expression [6] was “significantly elevated”. For the same compound, the “expression of p-Rb” value ([6]; OVCAR3 cells) was “significantly reduced”, the p-CDK2 expression ([6]; OVCAR3 cells) was “no significant effect” and the IC50 (TOV-21G cells) was 0.164 µM.
